Earlier results, collected in patent publication US6927291B2, “Method for the synthesis of 2′,3′-dideoxy-2′,3′-didehydronucleosides” (Pharmasset, Ltd., priority 2001, dated 2005).

Columns and labels:
HIV [1] = details: result in words
[2] = system: AZT-resistant HIV isolates; details: in vitro; isolates from patients treated with AZT for longer than 36 weeks
HIV [3] = details: versus all approved anti-HIV agents

## Nc1ccn(C2CSC(CO)O2)c(=O)n1 (racemic) [BCH-189, 2-hydroxymethyl-5-(cytosin-1-yl)-1,3-oxathiolane]
HIV [1]
  activity against HIV: approximately the same activity against HIV as AZT
[2]
  inhibition of replication of AZT-resistant HIV isolates: inhibit the replication of AZT-resistant HIV isolates in vitro

## Nc1nc(=O)n([C@@H]2CS[C@H](CO)O2)cc1F (relative stereo) [FTC, cis-2-hydroxymethyl-5-(5-fluorocytosin-1-yl)-1,3-oxathiolane]
HIV [1]
  activity against HIV: potent HIV activity

## Nc1ccn([C@@H]2CS[C@H](CO)O2)c(=O)n1 [Formula 3TC]
HIV [1]
  activity against HIV: highly potent against HIV

## Nc1nc(=O)n(C2C=CC(CO)O2)cc1F [β-D-D4FC, β-D-2′,3′-didehydro-2′,3′-dideoxy-5-fluorocytidine]
HIV [1]
  activity against HIV: potent anti-HIV activity in vitro
HIV [3]
  cross-resistance: no cross-resistance with all approved anti-HIV agents
